Legend:
[1] = test system: murine F9 teratocarcinoma model in NMRI nude mice; assay: Tumor enrichment and tissue distribution, F9 teratocarcinoma model; details: for Tumor/tissue quotient, Blood / Tumor/tissue quotient, Brain / Tumor/tissue quotient, Fat / Tumor/tissue quotient, Heart / Tumor/tissue quotient, Intestine / Tumor/tissue quotient, Kidney / Tumor/tissue quotient, Liver / Tumor/tissue quotient, Lung / Tumor/tissue quotient, Muscle / Tumor/tissue quotient, Ovary / Tumor/tissue quotient, Skin / Tumor/tissue quotient, Spleen / Tumor/tissue quotient, Stomach / Tumor/tissue quotient, Uterus: single i.v.; for Tissue uptake, Blood / Tissue uptake, Brain / Tissue uptake, Fat / Tissue uptake, Heart / Tissue uptake, Intestine / Tissue uptake, Kidney / Tissue uptake, Liver / Tissue uptake, Lung / Tissue uptake, Muscle / Tissue uptake, Ovary / Tissue uptake, Skin / Tissue uptake, Spleen / Tissue uptake, Stomach / Tissue uptake, Tumor / Tissue uptake, Uterus: single i.v. 370 kBq
Description: For the evaluation of the tumor enrichment and the tissue distribution in experimental animals, [^18F]-4-glutamic acid was tested in a murine F9 teratocarcinoma model in NMRI nude mice and a murine B16F1 melanoma model in C57BI6 mice.
For this, 1×10^6 cells (F9) or 5×10^5 cells (B16F1) respectively were suspended in 100 μl of phosphate-buffered physiological saline solution and inoculated subcutaneously into the right, rear flank of the corresponding experimental animal species (NMRI for F9 and 057-BI6 for B16F1) (Berndorff et al. Clin. Cancer Res. 2005, 11, 2005). […] [^18F]-4-Glutamic acid (370 kBq, in 100 μl of physiological saline solution) was administered intravenously to the tail vein. […]

[2] = test system: HT29 (colonic carcinoma) cells; assay: Tumor cell uptake in HT29 cells; format: cell-based, human; details: compared to [^18F]FDG
Description: (§1) For the evaluation of the tumor cell uptake of [^18F]glutamic acid, cell uptake experiments were carried out in human A549 (non-small-cell bronchial carcinoma) and HT29 (colonic carcinoma) cells. The tumor cell uptake of the glutamic acid derivatives was compared to
(§2) [^18F]FDG (gold standard for oncological PET investigations).

[3] = test system: A549 (non-small-cell bronchial carcinoma) cells; assay: Tumor cell uptake in A549 cells; format: cell-based, human; details: 250 kBq/well, compared to [^18F]FDG
Description: as §1, §2
FIG. 2: Comparison of the time-dependent tumor cell uptake of [^18F]-4-glutamic acid [20-35 μM] (on the left) and [F-18]FDG [2 μM] (on the right) in A549 cells. The cells were incubated with 250 kBq/well. For displacement experiments, L-glutamic acid (1 mM) or glucose (5 mM) was used (mean value±standard deviation, n=3).

NC(CC([18F])C(=O)O)C(=O)O (stereo not shown) [[^18F]4-glutamic acid, 4-[F-18]fluoroglutamic acid]
Tumor/tissue quotient, Blood ([1]; 0.25 h (times as Table 1)): 1.14
Tumor/tissue quotient, Brain ([1]; 0.25 h (times as Table 1)): 5.6
Tumor/tissue quotient, Fat ([1]; 0.25 h (times as Table 1)): 5.85
Tumor/tissue quotient, Heart ([1]; 0.25 h (times as Table 1)): 1.01
Tumor/tissue quotient, Intestine ([1]; 0.25 h (times as Table 1)): 1.26
Tumor/tissue quotient, Kidney ([1]; 0.25 h (times as Table 1)): 0.4
Tumor/tissue quotient, Liver ([1]; 0.25 h (times as Table 1)): 0.86
Tumor/tissue quotient, Lung ([1]; 0.25 h (times as Table 1)): 0.57
Tumor/tissue quotient, Muscle ([1]; 0.25 h (times as Table 1)): 1.67
Tumor/tissue quotient, Ovary ([1]; 0.25 h (times as Table 1)): 2.43
Tumor/tissue quotient, Skin ([1]; 0.25 h (times as Table 1)): 1.25
Tumor/tissue quotient, Spleen ([1]; 0.25 h (times as Table 1)): 1.12
Tumor/tissue quotient, Stomach ([1]; 0.25 h (times as Table 1)): 1.12
Tumor/tissue quotient, Uterus ([1]; 0.25 h (times as Table 1)): 1.18
Tissue uptake, Blood ([1]; 0.25 h): 2.51 % dose/g
Tissue uptake, Brain ([1]; 0.25 h): 0.52 % dose/g
Tissue uptake, Fat ([1]; 0.25 h): 0.85 % dose/g
Tissue uptake, Heart ([1]; 0.25 h): 2.86 % dose/g
Tissue uptake, Intestine ([1]; 0.25 h): 2.28 % dose/g
Tissue uptake, Kidney ([1]; 0.25 h): 7.24 % dose/g
Tissue uptake, Liver ([1]; 0.25 h): 3.37 % dose/g
Tissue uptake, Lung ([1]; 0.25 h): 5.08 % dose/g
Tissue uptake, Muscle ([1]; 0.25 h): 1.72 % dose/g
Tissue uptake, Ovary ([1]; 0.25 h): 1.34 % dose/g
Tissue uptake, Skin ([1]; 0.25 h): 2.28 % dose/g
Tissue uptake, Spleen ([1]; 0.25 h): 2.56 % dose/g
Tissue uptake, Stomach ([1]; 0.25 h): 2.56 % dose/g
Tissue uptake, Tumor ([1]; 0.25 h): 2.90 % dose/g
Tissue uptake, Uterus ([1]; 0.25 h): 2.54 % dose/g
Tumor/tissue quotient, Blood ([1]; 1.0 h (times as Table 1)): 3.46
Tumor/tissue quotient, Brain ([1]; 1.0 h (times as Table 1)): 4.2
Tumor/tissue quotient, Fat ([1]; 1.0 h (times as Table 1)): 7.37
Tumor/tissue quotient, Heart ([1]; 1.0 h (times as Table 1)): 2.73
Tumor/tissue quotient, Intestine ([1]; 1.0 h (times as Table 1)): 0.97
Tumor/tissue quotient, Kidney ([1]; 1.0 h (times as Table 1)): 1.38
Tumor/tissue quotient, Liver ([1]; 1.0 h (times as Table 1)): 3.48
Tumor/tissue quotient, Lung ([1]; 1.0 h (times as Table 1)): 1.34
Tumor/tissue quotient, Muscle ([1]; 1.0 h (times as Table 1)): 2.51
Tumor/tissue quotient, Ovary ([1]; 1.0 h (times as Table 1)): 5.05
Tumor/tissue quotient, Skin ([1]; 1.0 h (times as Table 1)): 3.4
Tumor/tissue quotient, Spleen ([1]; 1.0 h (times as Table 1)): 3.22
Tumor/tissue quotient, Stomach ([1]; 1.0 h (times as Table 1)): 2.45
Tumor/tissue quotient, Uterus ([1]; 1.0 h (times as Table 1)): 2.59
Tissue uptake, Blood ([1]; 1.0 h): 0.51 % dose/g
Tissue uptake, Brain ([1]; 1.0 h): 0.43 % dose/g
Tissue uptake, Fat ([1]; 1.0 h): 0.26 % dose/g
Tissue uptake, Heart ([1]; 1.0 h): 0.64 % dose/g
Tissue uptake, Intestine ([1]; 1.0 h): 1.83 % dose/g
Tissue uptake, Kidney ([1]; 1.0 h): 1.30 % dose/g
Tissue uptake, Liver ([1]; 1.0 h): 0.50 % dose/g
Tissue uptake, Lung ([1]; 1.0 h): 1.32 % dose/g
Tissue uptake, Muscle ([1]; 1.0 h): 0.70 % dose/g
Tissue uptake, Ovary ([1]; 1.0 h): 0.41 % dose/g
Tissue uptake, Skin ([1]; 1.0 h): 0.53 % dose/g
Tissue uptake, Spleen ([1]; 1.0 h): 0.54 % dose/g
Tissue uptake, Stomach ([1]; 1.0 h): 1.26 % dose/g
Tissue uptake, Tumor ([1]; 1.0 h): 1.75 % dose/g
Tissue uptake, Uterus ([1]; 1.0 h): 0.72 % dose/g
Tumor/tissue quotient, Blood ([1]; 2.0 h (times as Table 1)): 9.06
Tumor/tissue quotient, Brain ([1]; 2.0 h (times as Table 1)): 7.06
Tumor/tissue quotient, Fat ([1]; 2.0 h (times as Table 1)): 23.67
Tumor/tissue quotient, Heart ([1]; 2.0 h (times as Table 1)): 9.22
Tumor/tissue quotient, Intestine ([1]; 2.0 h (times as Table 1)): 1.54
Tumor/tissue quotient, Kidney ([1]; 2.0 h (times as Table 1)): 5.22
Tumor/tissue quotient, Liver ([1]; 2.0 h (times as Table 1)): 9.23
Tumor/tissue quotient, Lung ([1]; 2.0 h (times as Table 1)): 4.09
Tumor/tissue quotient, Muscle ([1]; 2.0 h (times as Table 1)): 9.5
Tumor/tissue quotient, Ovary ([1]; 2.0 h (times as Table 1)): 17.74
Tumor/tissue quotient, Skin ([1]; 2.0 h (times as Table 1)): 9.4
Tumor/tissue quotient, Spleen ([1]; 2.0 h (times as Table 1)): 18
Tumor/tissue quotient, Stomach ([1]; 2.0 h (times as Table 1)): 6.85
Tumor/tissue quotient, Uterus ([1]; 2.0 h (times as Table 1)): 6.96
Tissue uptake, Blood ([1]; 2.0 h): 0.21 % dose/g
Tissue uptake, Brain ([1]; 2.0 h): 0.27 % dose/g
Tissue uptake, Fat ([1]; 2.0 h): 0.09 % dose/g
Tissue uptake, Heart ([1]; 2.0 h): 0.21 % dose/g
Tissue uptake, Intestine ([1]; 2.0 h): 1.21 % dose/g
Tissue uptake, Kidney ([1]; 2.0 h): 0.37 % dose/g
Tissue uptake, Liver ([1]; 2.0 h): 0.20 % dose/g
Tissue uptake, Lung ([1]; 2.0 h): 0.48 % dose/g
Tissue uptake, Muscle ([1]; 2.0 h): 0.42 % dose/g
Tissue uptake, Ovary ([1]; 2.0 h): 0.12 % dose/g
Tissue uptake, Skin ([1]; 2.0 h): 0.21 % dose/g
Tissue uptake, Spleen ([1]; 2.0 h): 0.16 % dose/g
Tissue uptake, Stomach ([1]; 2.0 h): 0.33 % dose/g
Tissue uptake, Tumor ([1]; 2.0 h): 1.87 % dose/g
Tissue uptake, Uterus ([1]; 2.0 h): 0.32 % dose/g
tumor enrichment ([1]; F9 teratocarcinoma, 1 h after intravenous administration): 1.75 % ID/g
maximal tumor enrichment ([1]; F9 teratocarcinoma, after intravenous injection (15 min)): 2.90 % ID/g
tumor cell uptake [2]: surprisingly high uptake
tumor cell uptake [3]: surprisingly high uptake

Reference: patent US9375497B2, “[F-18]-labeled L-glutamic acid, [F-18]-labeled L-glutamine, derivatives thereof and use thereof and processes for their preparation” (BAYER SCHERING PHARMA AKTIENGESELLSCHAFT, priority 2006, dated 2016)
